Assay [1] has as its system Collagen1 gene expression (COL1A1) in WS1 cells. Kind of assay: Collagen1 (COL1A1) gene expression by real time PCR in WS1 human dermal fibroblasts. The class given is cell-based. Conditions: Table 1, 24 hours treatment, actives in wt %, fold change vs untreated control (1.0), normalized to GAPDH, delta delta Ct. As to the method:
Experiments were carried out to study gene expression of Collagen1 with actives as shown in Table-1 individually and in combination and the data is 12ummarized therein. The methodology used to measure the gene expression is given below:
WS1 cells (human dermal fibroblasts) were grown and maintained in high glucose DMEM (HIMEDIA cat No AL219A) supplemented with 0.03 mM Calcium chloride, 1 mM sodium pyruvate and 10% FBS (Fetal Bovine Serum) at 37° C. with 5% CO2. 80% confluent cells were trypsinized and plated in 24 well plate at a density of 50,000 cells/well. The cells were incubated at 37° C. with 5% CO2 for 24 hours. Post incubation, the cells were treated with arginine (0.005%) and varying concentration of pimelic acid, dimethyl pimelate, suberic acid. Azelaic acid (0.0001, 0.001, 0.005%). 24 hours after treatment the cells were harvested for RNA extraction. RNA was extracted using Qiagen RNA extraction kit (Cat No: 74004) as per the instructions given in the kit. After extraction of RNA, cDNA synthesis was done using iscript cDNA synthesis kit (Biorad Cat no: 1708890). […] of RNA was used for cDNA synthesis. cDNA template synthesized was used for gene expression studies.
Quantification of collagen gene expression was carried out using real time PCR. […] of cDNA was used for setting up the reaction. The PCR reaction mix had […] each of forward and reverse primer, […] of PCR master mix (Sigma Cat No: KCQS00). Amplification was carried out at 95° C. for 30 seconds as the first step, followed by 40 cycles of qRT-PCR at 95° C. for 5 seconds, and at 60° C. for 20 seconds. mRNA expression was measured in triplicate and was normalized to GAPDH (glyceraldehyde 3-phosphate dehydrogenase) expression levels. The relative quantification was done using delta delta Ct method. The primers used in the study are COL1A1 forward primer 5′-[…]-3′, COL1A1 reverse primer 5′-[…]-3′, GAPDH forward primer 5′-[…]-3′, reverse primer 5′-[…]-3′. The relative quantification of gene expression was done after normalization using house keeping gene (GAPDH) and comparing with untreated control.
The fold change of gene ‘expression obtaine’ from cells treated with’ combination of test actives were compared with the gene expression obtained from cells treated with individual ingredients.

For assay [2] the test system is unchanged. Described as above. Format: cell-based. The note with it: 24 hours treatment, actives in wt %, fold change vs untreated control (1.0), normalized to GAPDH.
[3] abbreviates: Table 3 (additional weight ratios 2:1, 4:1, 25:1).

As to `N=C(N)NCCCC(N)C(=O)O` (centres unmarked) [Example A, Arginine], the “Gene expression (Collagen1)” value in assay [1] was 1.9.
With `O=C(O)CCCCCC(=O)O` [Example B1, Pimelic acid], the “Gene expression (Collagen1)” value in assay [1] is on record as 1.1.
Still for that read-out and setting: the value for `O=C(O)CCCCCC(=O)O` [Example B2, Pimelic acid] was 2.8; that for `O=C(O)CCCCCC(=O)O` [Example B3, Pimelic acid] was 3.2; that for `COC(=O)CCCCCC(=O)OC` [Example C1, Dimethyl pimelate] was 1.2.
As to `COC(=O)CCCCCC(=O)OC` [Example C2, Dimethyl pimelate], the “Gene expression (Collagen1)” value in assay [1] was found to be 2.5.
Same read-out and setting: to `COC(=O)CCCCCC(=O)OC` [Example C3, Dimethyl pimelate] belongs 3.8.
On the same count and under the same terms, to `O=C(O)CCCCCCC(=O)O` [Example D1, Suberic acid] belongs 1.6; to `O=C(O)CCCCCCC(=O)O` [Example D2, Suberic acid], 2.9; to `O=C(O)CCCCCCC(=O)O` [Example D3, Suberic acid], 1.3.
Turning to `O=C(O)CCCCCCCC(=O)O` [Example E1, Azeleic acid], the “Gene expression (Collagen1)” value in assay [1] is reported as 1.4.
On the same count and under the same terms, the value for `O=C(O)CCCCCCCC(=O)O` [Example E2, Azeleic acid] was 1.6; that for `O=C(O)CCCCCCCC(=O)O` [Example E3, Azeleic acid] was 1.9.
For the compound `O=C(O)CCCCCC(=O)O` [Example G1, Pimelic acid], in assay [2] (Table 2 (lysine series)), the “Gene expression (Collagen1)” value is 1.1.
Same read-out and setting: to `O=C(O)CCCCCC(=O)O` [Example G2, Pimelic acid] belongs 2.4.
Still for that read-out and setting: the value for `O=C(O)CCCCCC(=O)O` [Example G3, Pimelic acid] was 3.0; that for `COC(=O)CCCCCC(=O)OC` [Example H1, Dimethyl pimelate] was 1.2; that for `COC(=O)CCCCCC(=O)OC` [Example H2, Dimethyl pimelate] was 2.4.
On the same count and under the same terms, to `COC(=O)CCCCCC(=O)OC` [Example H3, Dimethyl pimelate] belongs 3.7; to `O=C(O)CCCCCCC(=O)O` [Example J1, Suberic acid], 1.7.
`O=C(O)CCCCCCC(=O)O` [Example J2, Suberic acid]: the “Gene expression (Collagen1)” value in assay [2] (Table 2 (lysine series)) is on record as 2.8.
Still for that read-out and setting: the value for `O=C(O)CCCCCCC(=O)O` [Example J3, Suberic acid] was 1.4; that for `O=C(O)CCCCCCCC(=O)O` [Example K1, Azeleic acid] was 1.3.
In the case of `O=C(O)CCCCCCCC(=O)O` [Example K2, Azeleic acid], the “Gene expression (Collagen1)” value in assay [2] (Table 2 (lysine series)) turned out to be 1.6.
On the same count and under the same terms, the value for `O=C(O)CCCCCCCC(=O)O` [Example K3, Azeleic acid] was 2.0.
Take `N=C(N)NCCCC(N)C(=O)O` (centres unmarked) [Example L1, Arginine]: the “Gene expression (Collagen1)” value in assay [2] (setting [3]) amounted to 1.5.
On to `N=C(N)NCCCC(N)C(=O)O` (centres unmarked) [Example L2, Arginine], for which the “Gene expression (Collagen1)” value in assay [2] (setting [3]) came out at 3.3.
For the compound `N=C(N)NCCCC(N)C(=O)O` (centres unmarked) [Example L3, Arginine], in assay [2] (setting [3]), the “Gene expression (Collagen1)” value worked out at 4.4.
Same read-out and setting: to `O=C(O)CCCCCC(=O)O` [Example M1, Pimelic acid] belongs 3.0; to `O=C(O)CCCCCC(=O)O` [Example M2, Pimelic acid], 3.9; to `O=C(O)CCCCCC(=O)O` [Example M3, Pimelic acid], 2.7.
On the same count and under the same terms, the value for `COC(=O)CCCCCC(=O)OC` [Example N1, Dimethyl pimelate] was 2.2; that for `COC(=O)CCCCCC(=O)OC` [Example N2, Dimethyl pimelate] was 3.5; that for `COC(=O)CCCCCC(=O)OC` [Example N3, Dimethyl pimelate] was 2.5.
Turning to `O=C(O)CCCCCCC(=O)O` [Example O1, Suberic acid], the “Gene expression (Collagen1)” value in assay [2] (setting [3]) was determined as 2.7.
Same read-out and setting: to `O=C(O)CCCCCCC(=O)O` [Example O2, Suberic acid] belongs 3.7.
For the compound `O=C(O)CCCCCCC(=O)O` [Example O3, Suberic acid], in assay [2] (setting [3]), the “Gene expression (Collagen1)” value is reported as 2.5.
For `O=C(O)CCCCCCCC(=O)O` [Example P1, Azelaic acid], the “Gene expression (Collagen1)” value in assay [2] (setting [3]) is reported as 1.7.
Same read-out and setting: to `O=C(O)CCCCCCCC(=O)O` [Example P2, Azelaic acid] belongs 2.4; to `O=C(O)CCCCCCCC(=O)O` [Example P3, Azelaic acid], 1.6.
Regarding `NCCCC[C@H](N)C(=O)O` [F, Lysine], the “Gene expression (Collagen1)” value in assay [2] (Table 2 (lysine series)) worked out at 0.8.

Values taken from patent US20260224460A1, “A PERSONAL CARE COMPOSITION” (Conopco, Inc., d/b/a UNILEVER, priority 2023, published 2026).
